“Also recorded” adds a separate entry of the source. Ends that are not written are not given here.
How the values were obtained:
HeLa cells [1] = assay: Penetration of Lissamine Rhodamine-labeled synthetic peptides into intact cultured cells, fluorescence microscopy; type: cell-based; conditions: for co-penetration of free fluorophore LR into intact HeLa cells: mixture of unlabeled S413 and free LR, versus LR alone; for cell penetration and intracellular localization in intact HeLa cells (FIG. 1): 37° C., 5 μM; for cell penetration and intracellular localization in intact HeLa cells (FIG. 1) / cell penetration and nuclear accumulation in intact HeLa cells (FIG. 3): 30 minutes; for cell penetration and nuclear accumulation in intact HeLa cells (FIG. 3): 10 μM Rev at 37° C., 2 μM of RR-S413
Procedure: HeLa cells (3×10^4 per well) were cultured on eight-well Lab-Teck cover slips (Nunc Inc.) or on 10-mm cover slips to sub confluent density. Following the removal of the culture medium, the cells were washed three times with PBS and then exposed to different concentrations of the Lissamine Rhodamine-labeled peptides at 37° C. or at 4° C. At the end of the incubation period the cells were washed three times in PBS and fixed in 4% (v/v) formaldehyde dissolved in PBS. Fixed cells were examined by fluorescence microscopy (Zeiss Germany, a 40× objective; Apoplan) or by confocal microscopy using an MRC 1024 confocal imaging system (Bio-Rad). The microscope (Axiovert 135M; Zeiss Germany, a 63× objective; Apoplan; NA 1.4) was equipped with an argon ion laser for Rhodamine excitation at 514 nm (emission 580).
Following fixation, the various samples were examined by fluorescence microscopy.
Synthetic peptides bearing Tat and Rev ARM sequences were synthesized and fluorescently labeled as described. […]

permeabilized HeLa cells = assay: Nuclear uptake in digitonin-permeabilized cells, fluorescence microscopy; type: cell-based; design: key to Nuclear Import of PV-S413 / Nuclear uptake: +: Most of the nuclei in the microscopic fields are highly fluorescent; −: No fluorescence in the nuclei; +/−: Most of the nuclei are very weakly fluorescent
Procedure: FIGS. 2a-d: Nuclear import of PV-S413 in permeabilized HeLa cells: fluorescence microscopy observations. All experimental conditions were as described in Experimental Procedures and in legend to Table 3. Digitonin permeabilized HeLa cells were incubated in the presence of reticulocyte extract at 30° C. for 1 hour with 1 μM of the following:
HeLa cells were cultivated on 10 mm cover slips to sub confluent density and then permeabilized with digitonin as described previously [Friedler, A. et al. (1998) Biochemistry 37, 5616-5622]. The cells were incubated with the peptides and nuclear import was followed by fluorescence microscopy as described [Friedler, A. et al. (1998) id ibid.].
Experimental conditions of nuclear import in digitonin-permeabilized cells (complete system) were as described. PV-S413 was used at 1 mM and all incubations were performed at 37° C. in the presence of reticulocyte lysate, unless otherwise indicated. Additions: GTPγS (20 mM) and the following unlabeled peptides SV40 T-Ag NLS, S413 and PV-S413 at a ratio of 1:100 (mol/mol).
Unlabeled peptides RR-S413, SV40 T-Ag-NLS, Rev and Tat ARM were added at a peptide ratio of 1:100 (mole/mole).

cultured cells = assay: Effect of the peptides on cell viability (Trypan Blue); type: cell-based; conditions: for toxicity to cells, Trypan Blue test: at the concentrations used, 37° C., 30 minutes; for toxicity to the cells (cell viability): at concentrations up to about 15 μM
Procedure: Following incubation at 37° C. for 30 minutes 100 ml, Trypan Blue solution was added (0.4% in HBSS buffer; Sigma) and HBSS buffer (5:3) and viable cells counted after 5 minutes of continuous stirring. Cell death was not greater than 20%.

HeLa cells [2] = assay: Microinjection of the peptides into HeLa cells, nuclear import; type: cell-based; conditions: 1 μM, 2 hours after incubation at 37° C.
Procedure: FIGS. 4a-d: Nuclear import of S413 and RR-S413 in microinjected cells. HeLa cells were microinjected with the fluorescently labeled peptides S413 and RR-S413 (1 μM). The injection mixture also included fluorescently labeled BSA as an injection control (data not shown). Photos were taken 2 hours after incubation at 37° C.
HeLa cells were microinjected with either S413 or with RR-S413 using the CompInject AIS2 automated microinjection system (Cell Biology Trading, Hamburg, Germany) as described previously [Neumann, M. et al. (2001) J. Cell Sci. 114, 1717-29] using a microinjection method developed by Graessmann et al., as described [Graessmann, M. and Graessmann, A. (1983) Methods Enzymol. 101, 482-492].

erythrocytes = conditions: cited from earlier work

CCN(CC)c1ccc2c(-c3ccc(S(=O)(=O)O)cc3S(=O)(=O)[O-])c3ccc(=[N+](CC)CC)cc-3oc2c1 [L-Rhodamine, Lissamine Rhodamine, reference compound]
co-penetration of free fluorophore LR into intact HeLa cells (HeLa cells [1]): did not occur

ALWKTLLKKVLKA-NH2 [Peptide S413]
time of incubation within which penetration into cultured HeLa cells occurs (HeLa cells [1]; 1 μM of the peptide, either at 37° C. or at 4° C.): ≤ 5 min
cell penetration and intracellular localization in intact HeLa cells (FIG. 1) (HeLa cells [1]): accumulated within the cells' cytoplasm and not in the cells' nuclei
nuclear localization after long incubation (HeLa cells [1]; 24 hours after incubation at 37° C.): very little, if any, nuclear localization
penetration into intact cells in ATP depleted cells (HeLa cells [1]; ATP depleted cells): occurred
co-penetration of free fluorophore LR into intact HeLa cells (HeLa cells [1]): a few intracellular fluorescent dots
penetration into nuclei of digitonin permeabilized HeLa cells (FIG. 2) (permeabilized HeLa cells; 1 μM, reticulocyte extract, 30° C., 1 hour): did not penetrate
toxicity to cells, Trypan Blue test (cultured cells): non-toxic
localization following microinjection into intact HeLa cells (FIG. 4) (HeLa cells [2]): retained in the cytoplasm; also recorded: remained in the cytoplasm

ALWKTLLKKVLKAPKKKRKV-NH2 [Peptide S413-PV]
toxicity to cells, Trypan Blue test (cultured cells): not toxic

ALWMTLLKKVLKAAAKAALNAVLVGANA-COOH (ALWMTLLKKVLKAAAKAALNAVLVGANA-OH) [Peptide S4, reference compound]
toxicity to erythrocytes (erythrocytes): highly toxic

GRKKRRQRRRPPQC-NH2 [Tat-ARM, reference compound]
toxicity to the cells (cell viability) (cultured cells): not toxic

PKKKRKVALWKTLLKKVLKA-NH2 [PV-S413]
intracellular localization in intact HeLa cells at 4° C. (HeLa cells [1]; 4° C.): retained in the cytoplasm
cell penetration and intracellular localization in intact HeLa cells (FIG. 1) (HeLa cells [1]): cell penetration and accumulation within the cells' nuclei
ATP dependence of nuclear import in permeabilized HeLa cells (permeabilized HeLa cells): ATP-dependent
nuclear import in permeabilized HeLa cells at 4° C. (permeabilized HeLa cells; 4° C.): did not occur
Nuclear Import of PV-S413 (permeabilized HeLa cells; (i) Complete System: 1 mM peptide, 37° C., reticulocyte lysate): +
Nuclear Import of PV-S413 (permeabilized HeLa cells; (ii) Hexokinase (ATP depleted system)): −
Nuclear Import of PV-S413 (permeabilized HeLa cells; (iii) As (i), in the absence of reticulocyte extract): −
Nuclear Import of PV-S413 (permeabilized HeLa cells; (iv) As (i) at 4° C.): −
Nuclear Import of PV-S413 (permeabilized HeLa cells; (v) As (i) + GTPγS (20 mM)): −
Nuclear Import of PV-S413 (permeabilized HeLa cells; (vi) As (i) + unlabeled SV40-NLS, 1:100 (mol/mol)): +/−
Nuclear Import of PV-S413 (permeabilized HeLa cells; (vii) As (i) + unlabeled S413, 1:100 (mol/mol)): +
Nuclear Import of PV-S413 (permeabilized HeLa cells; (viii) As (i) + unlabeled PV-S413, 1:100 (mol/mol)): +/−
effect of GTPγS, WGA and excess of free unlabeled SV40 T-Ag-NLS peptide on nuclear import (permeabilized HeLa cells; permeabilized HeLa cells): inhibited
toxicity to cells, Trypan Blue test (cultured cells): not toxic

RQARRNRRRALWKTLLKKVLKA-NH2 [RR-S413]
cell penetration and nuclear accumulation in intact HeLa cells (FIG. 3) (HeLa cells [1]): readily penetrated into intact HeLa cells and accumulated—within a short period of time—within the nuclei of these cells
Nuclear uptake (permeabilized HeLa cells; ATP depleted cells): −
Nuclear uptake (permeabilized HeLa cells; In the absence of cytosolic factors): +
Nuclear uptake (permeabilized HeLa cells; In the presence of cytosolic factors): +/−
Nuclear uptake (permeabilized HeLa cells; In the presence of unlabeled RR-S413, 1:100 (mole/mole)): +/−
Nuclear uptake (permeabilized HeLa cells; In the presence of unlabeled Rev-ARM, 1:100 (mole/mole)): −
Nuclear uptake (permeabilized HeLa cells; In the presence of unlabeled SV40 T-Ag NLS, 1:100 (mole/mole)): +
Nuclear uptake (permeabilized HeLa cells; In the presence of unlabeled Tat-ARM, 1:100 (mole/mole)): +/−
Nuclear uptake (permeabilized HeLa cells; Incubation in 4° C.): −
nuclear import in digitonin permeabilized HeLa cells (permeabilized HeLa cells; no addition of cytosolic extract required): Nuclear import was also observed
toxicity to the cells (cell viability) (cultured cells): not toxic
localization following microinjection into intact HeLa cells (FIG. 4) (HeLa cells [2]): accumulated within the intranuclear space; also recorded: accumulated in the nuclei

RQARRNRRRC-NH2 [Rev-ARM, reference compound]
cell penetration and nuclear accumulation in intact HeLa cells (FIG. 3) (HeLa cells [1]): cell permeable
toxicity to the cells (cell viability) (cultured cells): not toxic

VKRKKKPALWKTLLKKVLKA-NH2 [rPV-S413]
cell penetration and intracellular localization in intact HeLa cells (FIG. 1) (HeLa cells [1]): very little, if any, accumulation within the cells' nuclei/nucleoli
nuclei accumulation in permeabilized HeLa cells (permeabilized HeLa cells; both in the presence and in the absence of the cytosolic extract): either did not accumulate or showed poor nuclei accumulation

Source: US20040132970A1, “Dermaseptin-derived peptides and their use in delivery systems” (priority 2002, published 2004)
